From paper PMC12655351, “Synthesis and Anticancer Activity Evaluation of New 5-((5-Nitrofuran-2-yl)allylidene)-2-thioxo-4-thiazolidinones” (Pharmaceuticals, 2025)
Values joined by “and” are separate entries in the source; they are usually repeats but may differ in a detail not shown here. Equal values may be shown once. Read-outs that look alike come from different tables or passages of the source.

Experiments:
NCI-H23 = conditions: for CC50: human
SK-OV-3 = assay: cells; conditions: Homo sapiens, SK-OV-3, 48 h
NCI-H460 = assay: NCI-60 SRB screen; conditions: NCI-H460, 48 h; for CC50: read-out: LC50
Melanoma [1] = conditions: Melanoma subpanel
NCI/ADR-RES = conditions: 48 h
SN12C [2] = conditions: 48 h
SR [3] = conditions: 48 h
OVCAR-3 = assay: cells; conditions: Homo sapiens, OVCAR-3, 48 h
UACC-257 = conditions: for CC50: human, 48 h
MOLT-4 = conditions: MOLT-4, 48 h
SF-295 = assay: NCI-60 SRB screen; conditions: SF-295, 48 h; for CC50: read-out: LC50, SF-295, 48 h
Leukemia = assay: cells; conditions: Homo sapiens; for GI50: read-out: MG_MID GI50; for CC50: read-out: MG_MID LC50
A498 [4] = assay: cells; conditions: Homo sapiens, A498, 48 h
SR [5] = assay: cells; conditions: Homo sapiens, 48 h
CNS cancer [6] = assay: cells; conditions: Homo sapiens; for GI50: read-out: MG_MID GI50; for CC50: read-out: MG_MID LC50
A498 [7] = conditions: A498, 48 h
Colon cancer = assay: NCI-60 SRB screen, subpanel; conditions: for MG_MID TGI: Colon cancer subpanel; for GI50 / CC50: Homo sapiens; for GI50: read-out: MG_MID GI50; for CC50: read-out: MG_MID LC50
SNB-75 = assay: NCI-60 SRB screen; conditions: SNB-75, 48 h; for CC50: read-out: LC50, SNB-75, 48 h
CNS cancer [8] = conditions: CNS cancer subpanel
786-0 = conditions: 786-0, 48 h
Breast cancer = assay: cells; conditions: Homo sapiens; for GI50: read-out: MG_MID GI50; for CC50: read-out: MG_MID LC50
HCC-2998 = conditions: for growth GP: HCC-2998, 10 μM, 48 h
MDA-MB-468 = assay: NCI-60 SRB screen; conditions: MDA-MB-468, 48 h
HCT-15 = assay: NCI-60 SRB screen; conditions: HCT-15, 48 h
SN12C [9] = assay: cells; conditions: Homo sapiens, 48 h
CAKI-1 = conditions: for growth GP: CAKI-1, 10 μM, 48 h; for GI50 / TGI: CAKI-1, 48 h
Melanoma [10] = assay: cells; conditions: Homo sapiens; for GI50: read-out: MG_MID GI50; for CC50: read-out: MG_MID LC50
OVCAR-4 = conditions: for growth GP: OVCAR-4, 10 μM; for GI50 / TGI: OVCAR-4, 48 h
UO-31 = assay: cells; conditions: Homo sapiens, UO-31, 48 h
EKVX = assay: NCI-60 SRB screen; conditions: 48 h; for CC50: read-out: LC50, EKVX, 48 h
PC-3 = assay: cells; conditions: Homo sapiens, PC-3, 48 h

Structure (SMILES): O=C(O)CCCCCN1C(=O)/C(=C/C=C/c2ccc([N+](=O)[O-])o2)SC1=S [14b, 6-((Z)-5-((E)-3-(5-nitrofuran-2-yl)allylidene)-4-oxo-2-thioxothiazolidin-3-yl)hexanoic acid]
- GI50 (NCI-H23; NCI-H23, 48 h): 1230 nM
- TGI (NCI-H23; NCI-H23, 48 h): 3100 nM and 2690 nM
- CC50 (NCI-H23; 48 h): 5890 nM
- GI50 (SK-OV-3): 1710 nM
- GI50 (NCI-H460; Homo sapiens): 1000 nM
- CC50 (NCI-H460; Homo sapiens): 5540 nM
- GI50 (NCI-H460): 630 nM
- TGI (NCI-H460): 2360 nM and 2310 nM
- MG_MID TGI (Melanoma [1]): 1820 nM
- GI50 (NCI/ADR-RES): 430 nM
- TGI (NCI/ADR-RES): 1850 nM and 2390 nM
- GI50 (SN12C [2]; SN12C): 260 nM
- TGI (SN12C [2]; SN12C): 1360 nM and 860 nM
- CC50 (SN12C [2]; human): 3240 nM
- TGI (SR [3]): 960 nM
- GI50 (OVCAR-3): 1120 nM
- GI50 (UACC-257; UACC-257, 48 h): 1400 nM
- TGI (UACC-257; UACC-257, 48 h): 3160 nM and 3080 nM
- CC50 (UACC-257): 6810 nM
- GI50 (MOLT-4): 310 nM
- TGI (MOLT-4): 1500 nM and 1210 nM
- GI50 (SF-295; Homo sapiens): 1910 nM
- CC50 (SF-295; Homo sapiens): 8720 nM
- GI50 (SF-295): 1700 nM
- TGI (SF-295): 4080 nM and 3360 nM
- GI50 (Leukemia): 410 nM
- CC50 (Leukemia): 64900 nM
- GI50 (A498 [4]): 8130 nM
- GI50 (SR [5]): 270 nM
- GI50 (CNS cancer [6]): 1140 nM
- CC50 (CNS cancer [6]): 6090 nM
- GI50 (A498 [7]): 10200 nM
- TGI (A498 [7]): 20800 nM and 22800 nM
- MG_MID TGI (Colon cancer): 1920 nM
- GI50 (Colon cancer): 870 nM
- CC50 (Colon cancer): 11700 nM
- CC50 (SNB-75; Homo sapiens): 5680 nM
- TGI (SNB-75): 2610 nM and 1430 nM
- MG_MID TGI (CNS cancer [8]): 2620 nM
- GI50 (786-0): 320 nM
- TGI (786-0): 2060 nM and 1230 nM
- GI50 (Breast cancer): 650 nM
- CC50 (Breast cancer): 36500 nM
- growth GP (HCC-2998): -95.72%
- GI50 (HCC-2998; HCC-2998, 48 h): 1600 nM
- TGI (HCC-2998; HCC-2998, 48 h): 3320 nM and 2980 nM
- GI50 (SK-MEL-28; SK-MEL-28, 48 h): 1190 nM
- TGI (SK-MEL-28; SK-MEL-28, 48 h): 3110 nM and 2710 nM
- CC50 (SK-MEL-28; human, 48 h): 6210 nM
- CC50 (MDA-MB-468; Homo sapiens, read-out: LC50, MDA-MB-468, 48 h): 5270 nM
- GI50 (HCT-15): 160 nM
- TGI (HCT-15): 510 nM and 350 nM
- GI50 (HCT-15; Homo sapiens): 190 nM
- GI50 (SN12C [9]): 360 nM
- CC50 (SN12C [9]; read-out: LC50, SN12C, 48 h): 3890 nM
- growth GP (CAKI-1): -96.43%
- GI50 (CAKI-1): 1400 nM
- TGI (CAKI-1): 2090 nM and 2720 nM
- GI50 (Melanoma [10]): 760 nM
- CC50 (Melanoma [10]): 4400 nM
- growth GP (OVCAR-4; 48 h): -97.80%
- GI50 (OVCAR-4): 1490 nM
- TGI (OVCAR-4): 2690 nM and 2840 nM
- GI50 (UO-31): 520 nM
- CC50 (UO-31; read-out: LC50, UO-31, 48 h): 4310 nM
- GI50 (EKVX): 1680 nM
- TGI (EKVX): 3480 nM and 3550 nM
- GI50 (EKVX; Homo sapiens): 1740 nM
- CC50 (EKVX; Homo sapiens): 6940 nM

Structure (SMILES): O=C(O)CCCN1C(=O)/C(=C/C=C/c2ccc([N+](=O)[O-])o2)SC1=S [13b, 4-((Z)-5-((E)-3-(5-Nitrofuran-2-yl)allylidene)-4-oxo-2-thioxothiazolidin-3-yl)butanoic acid]
- growth GP (NCI-H23; NCI-H23, 10 μM, 48 h): -93.85%
- TGI (NCI-H23; NCI-H23, 48 h): 3090 nM and 2040 nM
- CC50 (NCI-H23; 48 h): 5700 nM
- GI50 (SK-OV-3): 2730 nM
- CC50 (SK-OV-3; read-out: LC50, SK-OV-3, 48 h): 28100 nM
- GI50 (NCI-H460; Homo sapiens): 630 nM
- CC50 (NCI-H460; Homo sapiens): 4940 nM
- GI50 (NCI-H460): 330 nM
- TGI (NCI-H460): 1990 nM and 1390 nM
- MG_MID TGI (Melanoma [1]): 1460 nM
- GI50 (NCI/ADR-RES): 260 nM
- TGI (NCI/ADR-RES): 1230 nM and 770 nM
- growth GP (SN12C [2]; SN12C, 10 μM): -96.81%
- GI50 (SN12C [2]; SN12C): 170 nM
- GI50 (OVCAR-3): 770 nM
- TGI (UACC-257; UACC-257, 48 h): 3150 nM and 1730 nM
- CC50 (UACC-257): 4660 nM
- GI50 (MOLT-4): 290 nM
- TGI (MOLT-4): 1860 nM and 1160 nM
- CC50 (SF-295; Homo sapiens): 6310 nM
- TGI (SF-295): 3240 nM and 2070 nM
- GI50 (Leukemia): 9340 nM
- CC50 (Leukemia): 87000 nM
- GI50 (A498 [4]): 4130 nM
- CC50 (SR [5]; read-out: LC50): > 100000 nM
- GI50 (CNS cancer [6]): 800 nM
- CC50 (CNS cancer [6]): 6680 nM
- GI50 (A498 [7]): 3320 nM
- TGI (A498 [7]): 11500 nM and 8160 nM
- MG_MID TGI (Colon cancer): 1350 nM
- GI50 (Colon cancer): 520 nM
- CC50 (Colon cancer): 11900 nM
- GI50 (SNB-75; Homo sapiens): 380 nM
- CC50 (SNB-75; Homo sapiens): 8730 nM
- GI50 (SNB-75): 320 nM
- TGI (SNB-75): 1990 nM and 1370 nM
- MG_MID TGI (CNS cancer [8]): 2090 nM
- GI50 (786-0): 280 nM
- TGI (786-0): 1300 nM and 900 nM
- GI50 (PC-3): 620 nM
- GI50 (Breast cancer): 530 nM
- CC50 (Breast cancer): 36000 nM
- growth GP (HCC-2998): -95.27%
- GI50 (MDA-MB-468; Homo sapiens): 330 nM
- GI50 (MDA-MB-468): 170 nM
- GI50 (HCT-15): 110 nM
- TGI (HCT-15): 520 nM and 330 nM
- GI50 (HCT-15; Homo sapiens): 180 nM
- GI50 (SN12C [9]): 340 nM
- growth GP (CAKI-1): -96.66%
- GI50 (CAKI-1): 770 nM
- TGI (CAKI-1): 1970 nM and 2040 nM
- GI50 (Melanoma [10]): 590 nM
- CC50 (Melanoma [10]): 3600 nM
- growth GP (OVCAR-4; 48 h): -97.74%
- GI50 (OVCAR-4): 1560 nM
- TGI (OVCAR-4): 2580 nM and 2940 nM
- CC50 (OVCAR-4; human, 48 h): 5540 nM
- GI50 (EKVX): 1050 nM
- TGI (EKVX): 4240 nM and 2520 nM
- GI50 (EKVX; Homo sapiens): 1830 nM
- CC50 (EKVX; Homo sapiens): 9840 nM
